From ChEMBL document CHEMBL1681651, “A broad spectrum anticancer nucleoside with selective toxicity against human colon cells in vitro” (2011)

Experiments:
Format in all cases: functional
[1] = tested on: 786-0; assay: Growth inhibition of human 786-0 cells assessed as cell growth at 1 uM after 48 hrs by SRB assay; conditions: 786-0, 48 h, read-out: Activity
[2] = tested on: ACHN; assay: Growth inhibition of human ACHN cells assessed as cell growth at 1 uM after 48 hrs by SRB assay; conditions: read-out: Activity
[3] = tested on: MCF7; assay: Growth inhibition of human MCF7 cells assessed as cell growth at 1 uM after 48 hrs by SRB assay; conditions: MCF7, 48 h, read-out: Activity
[4] = tested on: NCI/ADR-RES; assay: Growth inhibition of human NCI/ADR-RES cells assessed as cell growth at 1 uM after 48 hrs by SRB assay; conditions: read-out: Activity
[5] = tested on: NCI-H522; assay: Growth inhibition of human NCI-H522 cells after 48 hrs by […] growth inhibition assay; conditions: NCI-H522, 48 h
[6] = tested on: SK-MEL-2; assay: Growth inhibition of human SK-MEL-2 cells after 48 hrs by […] growth inhibition assay; conditions: SK-MEL-2, 48 h
[7] = tested on: SN12C; assay: Growth inhibition of human SN12C cells after 48 hrs by […] growth inhibition assay
[8] = tested on: DU-145; assay: Growth inhibition of human DU145 cells after 48 hrs by […] growth inhibition assay; conditions: DU-145, 48 h
[9] = tested on: NCI-H226; assay: Growth inhibition of human NCI-H226 cells assessed as cell growth at 0.1 uM after 48 hrs by SRB assay; conditions: NCI-H226, 48 h, read-out: Activity
[10] = tested on: HCC 2998; assay: Growth inhibition of human HCC2998 cells assessed as cell growth at 0.1 uM after 48 hrs by SRB assay; conditions: HCC 2998, 48 h, read-out: Activity
[11] = tested on: HCT-15; assay: Growth inhibition of human HCT15 cells assessed as cell growth at 0.1 uM after 48 hrs by SRB assay; conditions: HCT-15, 48 h, read-out: Activity
[12] = tested on: OVCAR-8; assay: Growth inhibition of human OVCAR8 cells assessed as cell growth at 0.1 uM after 48 hrs by SRB assay; conditions: OVCAR-8, 48 h, read-out: Activity
[13] = tested on: CAKI-1; assay: Growth inhibition of human Caki1 cells assessed as cell growth at 0.1 uM after 48 hrs by SRB assay; conditions: CAKI-1, 48 h, read-out: Activity
[14] = tested on: ACHN; assay: Growth inhibition of human ACHN cells assessed as cell growth at 10 uM after 48 hrs by SRB assay; conditions: read-out: Activity
[15] = tested on: RXF 393; assay: Growth inhibition of human RXF393 cells assessed as cell growth at 10 uM after 48 hrs by SRB assay; conditions: RXF 393, 48 h, read-out: Activity
[16] = tested on: HCT-116; assay: Growth inhibition of human HCT116 cells assessed as cell growth at 100 uM after 48 hrs by SRB assay; conditions: HCT-116, 48 h, read-out: Activity
[17] = tested on: U-251; assay: Growth inhibition of human U251 cells assessed as cell growth at 100 uM after 48 hrs by SRB assay; conditions: U-251, 48 h, read-out: Activity
[18] = tested on: SK-MEL-2; assay: Growth inhibition of human SK-MEL-2 cells assessed as cell growth at 100 uM after 48 hrs by SRB assay; conditions: SK-MEL-2, 48 h, read-out: Activity
[19] = tested on: UACC-257; assay: Growth inhibition of human UACC257 cells assessed as cell growth at 100 uM after 48 hrs by SRB assay; conditions: UACC-257, 48 h, read-out: Activity
[20] = tested on: SK-OV-3; assay: Growth inhibition of human SKOV3 cells assessed as cell growth at 100 uM after 48 hrs by SRB assay; conditions: SK-OV-3, 48 h, read-out: Activity
[21] = tested on: CAKI-1; assay: Growth inhibition of human Caki1 cells assessed as cell growth at 100 uM after 48 hrs by SRB assay; conditions: CAKI-1, 48 h, read-out: Activity
[22] = tested on: MCF7; assay: Growth inhibition of human MCF7 cells assessed as cell growth at 100 uM after 48 hrs by SRB assay; conditions: MCF7, 48 h, read-out: Activity
[23] = tested on: MDA-MB-435; assay: Growth inhibition of human MDA-MB-435 cells assessed as cell growth at 100 uM after 48 hrs by SRB assay; conditions: MDA-MB-435, 48 h, read-out: Activity
[24] = tested on: SNB-19; assay: Growth inhibition of human SNB19 cells assessed as cell growth at 1 mM after 48 hrs by SRB assay; conditions: SNB-19, 48 h, read-out: Activity
[25] = tested on: LOX IMVI; assay: Growth inhibition of human LOXIMVI cells assessed as cell growth at 1 mM after 48 hrs by SRB assay; conditions: read-out: Activity
[26] = tested on: BT-549; assay: Growth inhibition of human BT549 cells assessed as cell growth at 1 mM after 48 hrs by SRB assay; conditions: BT-549, 48 h, read-out: Activity
[27] = tested on: EKVX; assay: Growth inhibition of human EKVX cells assessed as cell growth at 1 uM after 48 hrs by SRB assay; conditions: read-out: Activity
[28] = tested on: HOP-62; assay: Growth inhibition of human HOP62 cells assessed as cell growth at 1 uM after 48 hrs by SRB assay; conditions: HOP-62, 48 h, read-out: Activity
[29] = tested on: NCI-H226; assay: Growth inhibition of human NCI-H226 cells assessed as cell growth at 1 uM after 48 hrs by SRB assay; conditions: NCI-H226, 48 h, read-out: Activity
[30] = tested on: NCI-H322M; assay: Growth inhibition of human NCI-H322M cells assessed as cell growth at 1 uM after 48 hrs by SRB assay; conditions: read-out: Activity
[31] = tested on: KM12; assay: Growth inhibition of human KM12 cells assessed as cell growth at 1 uM after 48 hrs by SRB assay; conditions: KM12, 48 h, read-out: Activity
[32] = tested on: SF-539; assay: Growth inhibition of human SF539 cells assessed as cell growth at 1 uM after 48 hrs by SRB assay; conditions: SF-539, 48 h, read-out: Activity
[33] = tested on: SNB-75; assay: Growth inhibition of human SNB75 cells assessed as cell growth at 1 uM after 48 hrs by SRB assay; conditions: SNB-75, 48 h, read-out: Activity
[34] = tested on: M14; assay: Growth inhibition of human M14 cells assessed as cell growth at 1 uM after 48 hrs by SRB assay; conditions: M14, 48 h, read-out: Activity
[35] = tested on: UACC-62; assay: Growth inhibition of human UACC62 cells assessed as cell growth at 1 uM after 48 hrs by SRB assay; conditions: UACC-62, 48 h, read-out: Activity
[36] = read-out: LC50 (the source's name)
[37] = read-out: pLC50 (the source's name) (converted)

CNC(=O)NC[C@H]1O[C@@H](n2cnc3c(NC(=O)Nc4ccccc4)ncnc32)[C@H](O[Si](C)(C)C(C)(C)C)[C@@H]1O[Si](C)(C)C(C)(C)C
growth at 1 µM [1]: 113%
growth at 1 µM [2]: 108%
growth at 1 µM [3]: 96%
growth at 1 µM [4]: 109%
GI50 ([5]; read-out: GI50): 2.39 µM
CC50 [5, 36]: > 100 µM
TGI ([5]; read-out: TGI): 7.14 µM
GI50 ([5]; read-out: pGI50 (converted)): 2.4 µM
CC50 [5, 37]: > 100 µM
TGI ([5]; read-out: pTGI (converted)): 7.08 µM
GI50 ([6]; read-out: GI50): 2.45 µM
CC50 [6, 36]: > 100 µM
TGI ([6]; read-out: TGI): 55.4 µM
GI50 ([6]; read-out: pGI50 (converted)): 2.45 µM
CC50 [6, 37]: 28.2 µM
TGI ([6]; read-out: pTGI (converted)): 5.5 µM
GI50 ([7]; read-out: GI50): 1.81 µM
CC50 [7, 36]: 6.29 µM
TGI ([7]; read-out: TGI): 3.38 µM
GI50 ([7]; read-out: pGI50 (converted)): 1.82 µM
CC50 [7, 37]: 6.31 µM
TGI ([7]; read-out: pTGI (converted)): 3.39 µM
GI50 ([8]; read-out: GI50): 2.58 µM
CC50 [8, 36]: 18.7 µM
TGI ([8]; read-out: TGI): 5.71 µM
GI50 ([8]; read-out: pGI50 (converted)): 2.57 µM
CC50 [8, 37]: 18.6 µM
TGI ([8]; read-out: pTGI (converted)): 5.75 µM
growth at 0.1 µM [9]: 102%
growth at 0.1 µM [10]: 100%
growth at 0.1 µM [11]: 105%
growth at 0.1 µM [12]: 108%
growth at 0.1 µM [13]: 103%
growth at 10 µM [14]: 105%
growth at 10 µM [15]: 111%
growth at 100 µM [16]: -59%
growth at 100 µM [17]: 2%
growth at 100 µM [18]: -36%
growth at 100 µM [19]: 11%
growth at 100 µM [20]: 39%
growth at 100 µM [21]: -11%
growth at 100 µM [22]: 6%
growth at 100 µM [23]: 9%
growth at 1000 µM [24]: 7%
growth at 1000 µM [25]: -77%
growth at 1000 µM [26]: -36%
growth at 1 µM [27]: 111%
growth at 1 µM [28]: 108%
growth at 1 µM [29]: 106%
growth at 1 µM [30]: 106%
growth at 1 µM [31]: 111%
growth at 1 µM [32]: 100%
growth at 1 µM [33]: 95%
growth at 1 µM [34]: 107%
growth at 1 µM [35]: 100%

CNC(=O)OC[C@H]1O[C@@H](n2cnc3c(NC(=O)Nc4ccccc4)ncnc32)[C@H](O[Si](C)(C)C(C)(C)C)[C@@H]1O[Si](C)(C)C(C)(C)C
growth at 10 µM [14]: 94.6%
growth at 10 µM [15]: 94.2%
